Results from patent publication US20240002344A1, “COMPOUNDS, COMPOSITIONS AND METHODS FOR HISTONE LYSINE DEMETHYLASE INHIBITION” (FibroGen, Inc., priority 2020, published 2024).

Key:
recombinant human KDM5B = target: T1, recombinant human KDM5B (Homo sapiens, UniProt Q9UGL1); test: 14CO2 capture enzymatic assay (decarboxylation of [1-14C] αKG), KDM5B; assay type: biochemical; conditions: 10 μM [1-14C] αKG, 90 μM non-labeled αKG, 50 μM peptide substrate, 37° C., 1 hour, final 1% DMSO
T1 sequence (Q9UGL1 374-755 limits assumed): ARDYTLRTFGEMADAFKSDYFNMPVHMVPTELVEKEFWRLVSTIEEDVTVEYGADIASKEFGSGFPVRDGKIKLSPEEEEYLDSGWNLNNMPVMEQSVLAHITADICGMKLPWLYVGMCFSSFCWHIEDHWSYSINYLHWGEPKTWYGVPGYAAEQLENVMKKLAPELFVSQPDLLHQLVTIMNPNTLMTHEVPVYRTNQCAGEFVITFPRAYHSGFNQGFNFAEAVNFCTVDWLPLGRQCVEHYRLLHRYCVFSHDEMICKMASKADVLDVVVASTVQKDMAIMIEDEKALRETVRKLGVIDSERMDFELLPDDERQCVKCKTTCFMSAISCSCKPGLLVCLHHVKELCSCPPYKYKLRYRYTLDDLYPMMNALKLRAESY
How it was run: (§1)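 Truncated recombinant human KDM5B (H3K4me3 peptide) or KDM4A (H3K9me3 peptide), 50 μM peptide, with 10 μM [1-14C]αKG plus 90 μM unlabeled αKG, 10 μM Fe(SO4), 2 mM ascorbate in pH 7.4 HEPES, 1 h at 37 °C, 1% DMSO. Released 14CO2 trapped on Ba(OH)2 filter; IC50 by non-linear fit.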

recombinant human KDM4A = target: T2, recombinant human KDM4A (Homo sapiens, UniProt O75164); test: 14CO2 capture enzymatic assay (decarboxylation of [1-14C] αKG), KDM4A; assay type: biochemical; conditions: 10 μM [1-14C] αKG, 90 μM non-labeled αKG, 50 μM peptide substrate, 37° C., 1 hour, final 1% DMSO
T2 construct: made in house
T2 sequence (O75164 1-359 limits assumed): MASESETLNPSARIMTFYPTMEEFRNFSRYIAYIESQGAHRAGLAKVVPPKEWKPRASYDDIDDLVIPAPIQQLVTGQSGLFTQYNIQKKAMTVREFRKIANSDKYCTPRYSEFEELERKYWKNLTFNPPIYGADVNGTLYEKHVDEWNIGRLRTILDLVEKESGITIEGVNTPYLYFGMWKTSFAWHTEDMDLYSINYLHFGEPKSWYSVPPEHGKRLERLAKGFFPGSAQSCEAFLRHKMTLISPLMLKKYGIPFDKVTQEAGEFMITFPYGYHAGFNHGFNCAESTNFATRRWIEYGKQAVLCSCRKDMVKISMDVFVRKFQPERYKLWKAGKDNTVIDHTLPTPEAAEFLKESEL
How it was run: as §1

Row | IC50 (recombinant human KDM5B) | IC50 (recombinant human KDM4A) | SMILES
1 | 160 nM | > 40000 nM | COc1ccc(-c2cc(C#N)c(O)c(C(=O)CCC(=O)O)n2)cc1 [Example 9, 4-[4-Cyano-3-hydroxy-6-(4-methoxy-phenyl)-pyridin-2-yl]-4-oxo-butyric acid]
2 | 130 nM | 16000 nM | N#Cc1cc(-c2ccncc2)nc(C(=O)CCC(=O)O)c1O [Example 12, 4-(4-Cyano-5-hydroxy-[2,4′]bipyridinyl-6-yl)-4-oxo-butyric acid]
3 | 450 nM | 36000 nM | O=C(O)CCC(=O)c1nc(Br)cc(Br)c1O [Example 1, 4-(4,6-Dibromo-3-hydroxy-pyridin-2-yl)-4-oxo-butyric acid]
4 | 230 nM | > 40000 nM | N#Cc1ccc(Cc2cc(C#N)c(O)c(C(=O)CCC(=O)O)n2)cc1 [Example 44, 4-[4-Cyano-6-(4-cyano-benzyl)-3-hydroxy-pyridin-2-yl]-4-oxo-butyric acid]
5 | 210 nM | 32000 nM | N#Cc1cc(Cc2cccc(F)c2)nc(C(=O)CCC(=O)O)c1O [Example 42, 4-[4-Cyano-6-(3-fluoro-benzyl)-3-hydroxy-pyridin-2-yl]-4-oxo-butyric acid]
6 | 60 nM | > 40000 nM | Cc1cc(Cl)c(Cc2cc(C#N)c(O)c(C(=O)CCC(=O)O)n2)c(Cl)c1 [Example 127, 4-[4-Cyano-6-(2,6-dichloro-4-methyl-benzyl)-3-hydroxy-pyridin-2-yl]-4-oxo-butyric acid]
7 | 300 nM | > 40000 nM | N#Cc1cc(Cc2ccccc2-c2ccccc2)nc(C(=O)CCC(=O)O)c1O [Example 52, 4-(6-Biphenyl-2-ylmethyl-4-cyano-3-hydroxy-pyridin-2-yl)-4-oxo-butyric acid]
8 | 320 nM | > 40000 nM | N#Cc1cc(-c2cccc(F)c2Cl)nc(C(=O)CCC(=O)O)c1O [Example 107, 4-[6-(2-Chloro-3-fluoro-phenyl)-4-cyano-3-hydroxy-pyridin-2-yl]-4-oxo-butyric acid]
9 | 210 nM | 29000 nM | N#Cc1cc(Cc2ccccc2Cl)nc(C(=O)CCC(=O)O)c1O [Example 21, 4-[6-(2-Chloro-benzyl)-4-cyano-3-hydroxy-pyridin-2-yl]-4-oxo-butyric acid]
10 | 150 nM | ≥ 40000 nM | N#Cc1cc(-c2cccc(Cl)c2)nc(C(=O)CCC(=O)O)c1O [Example 23, 4-[6-(3-Chloro-phenyl)-4-cyano-3-hydroxy-pyridin-2-yl]-4-oxo-butyric acid]
11 | 400 nM | > 40000 nM | Cc1ccc(Cl)c(-c2cc(C#N)c(O)c(C(=O)CCC(=O)O)n2)c1 [Example 102, 4-[6-(2-Chloro-5-methyl-phenyl)-4-cyano-3-hydroxy-pyridin-2-yl]-4-oxo-butyric acid]
12 | 60 nM | 17000 nM | N#Cc1cc(Cc2ccc(F)cc2)nc(C(=O)CCC(=O)O)c1O [Example 40, 4-[4-Cyano-6-(4-fluoro-benzyl)-3-hydroxy-pyridin-2-yl]-4-oxo-butyric acid]
13 | 360 nM | > 40000 nM | N#Cc1cc(Cc2c(Cl)cc(C(F)(F)F)cc2Cl)nc(C(=O)CCC(=O)O)c1O [Example 145, 4-[4-Cyano-6-(2,6-dichloro-4-trifluoromethyl-benzyl)-3-hydroxy-pyridin-2-yl]-4-oxo-butyric acid]
14 | 200 nM | > 40000 nM | N#Cc1cc(-c2ccc(C(F)(F)F)cc2)nc(C(=O)CCC(=O)O)c1O [Example 26, 4-[4-Cyano-3-hydroxy-6-(4-trifluoromethyl-phenyl)-pyridin-2-yl]-4-oxo-butyric acid]
15 | 390 nM | > 40000 nM | N#Cc1cc(-c2cccc3ncccc23)nc(C(=O)CCC(=O)O)c1O [Example 112, 4-(4-Cyano-3-hydroxy-6-quinolin-5-yl-pyridin-2-yl)-4-oxo-butyric acid]
16 | 1400 nM | > 40000 nM | Cc1cccc(C)c1Cc1cc(C(=O)CCC(=O)O)c(O)c(C#N)n1 [Example 133, 4-[2-Cyano-6-(2,6-dimethyl-benzyl)-3-hydroxy-pyridin-4-yl]-4-oxo-butyric acid]
17 | 540 nM | > 40000 nM | N#Cc1cccc(Cc2cc(C#N)c(O)c(C(=O)CCC(=O)O)n2)c1 [Example 45, 4-[4-Cyano-6-(3-cyano-benzyl)-3-hydroxy-pyridin-2-yl]-4-oxo-butyric acid]
18 | 230 nM | > 40000 nM | Cc1cccc(C)c1Cc1cc(C#N)c(O)c(C(=O)CCC(=O)O)c1 [Example 122, 4-[3-Cyano-5-(2,6-dimethyl-benzyl)-2-hydroxy-phenyl]-4-oxo-butyric acid]
19 | 250 nM | > 40000 nM | N#Cc1cc(-c2ccc(F)cc2Cl)nc(C(=O)CCC(=O)O)c1O [Example 83, 4-[6-(2-Chloro-4-fluoro-phenyl)-4-cyano-3-hydroxy-pyridin-2-yl]-4-oxo-butyric acid]
20 | 270 nM | > 40000 nM | Cc1cc(C#N)ccc1-c1cc(C#N)c(O)c(C(=O)CCC(=O)O)n1 [Example 99, 4-[4-Cyano-6-(4-cyano-2-methyl-phenyl)-3-hydroxy-pyridin-2-yl]-4-oxo-butyric acid]
21 | 120 nM | > 40000 nM | Cc1ccc(Cc2cc(C#N)c(O)c(C(=O)CCC(=O)O)n2)cc1 [Example 38, 4-[4-Cyano-3-hydroxy-6-(4-methyl-benzyl)-pyridin-2-yl]-4-oxo-butyric acid]
22 | 190 nM | > 40000 nM | N#Cc1cc(Oc2ccccc2)nc(C(=O)CCC(=O)O)c1O [Example 76, 4-(4-Cyano-3-hydroxy-6-phenoxy-pyridin-2-yl)-4-oxo-butyric acid]
23 | 570 nM | > 40000 nM | COc1cccc(C(F)(F)F)c1Cc1cc(C#N)c(O)c(C(=O)CCC(=O)O)n1 [Example 61, 4-[4-Cyano-3-hydroxy-6-(2-methoxy-6-trifluoromethyl-benzyl)-pyridin-2-yl]-4-oxo-butyric acid]
24 | 180 nM | 28000 nM | N#Cc1cc(Cc2c(Cl)cc(Cl)cc2Cl)nc(C(=O)CCC(=O)O)c1O [Example 144, 4-[4-Cyano-3-hydroxy-6-(2,4,6-trichloro-benzyl)-pyridin-2-yl]-4-oxo-butyric acid]
25 | 60 nM | 12000 nM | N#Cc1cc(Cc2cccc3ccccc23)nc(C(=O)CCC(=O)O)c1O [Example 34, 4-(4-Cyano-3-hydroxy-6-naphthalen-1-ylmethyl-pyridin-2-yl)-4-oxo-butyric acid]
26 | 330 nM | > 40000 nM | Cc1ccc(-c2cc(C#N)c(O)c(C(=O)CCC(=O)O)n2)c(C)c1 [Example 93, 4-[4-Cyano-6-(2,4-dimethyl-phenyl)-3-hydroxy-pyridin-2-yl]-4-oxo-butyric acid]
27 | 520 nM | > 40000 nM | N#Cc1cc(Cc2ccc3ccccc3c2)nc(C(=O)CCC(=O)O)c1O [Example 24, 4-(4-Cyano-3-hydroxy-6-naphthalen-2-ylmethyl-pyridin-2-yl)-4-oxo-butyric acid]
28 | 270 nM | > 40000 nM | Cc1ccc(C)c(-c2cc(C#N)c(O)c(C(=O)CCC(=O)O)n2)c1 [Example 94, 4-[4-Cyano-6-(2,5-dimethyl-phenyl)-3-hydroxy-pyridin-2-yl]-4-oxo-butyric acid]
29 | 240 nM | 12000 nM | N#Cc1cc(Cc2c(Cl)cccc2Cl)nc(C(=O)CCC(=O)O)c1O [Example 32, 4-[4-Cyano-6-(2,6-dichloro-benzyl)-3-hydroxy-pyridin-2-yl]-4-oxo-butyric acid]
